# Reference: patent publication US11549115B2, “Compositions and methods for regulated gene expression” (YALE UNIVERSITY, priority 2017, dated 2023)
# Columns and labels:
# sialidase BT0455 = assay: Sialidase activity in murine fecal samples (pNP-SA hydrolysis, LC-MS); assay type: in vivo, Bacteroides thetaiotaomicron; settings: mice carrying Bt^RS
# Procedure: Groups of 6 germ-free Swiss Webster mice were orally gavaged with 1×10^9 CFU of the desired B. thetaiotaomicron strain. Fecal samples (˜100-200 mg) were collected daily for 12 days. aTC (100 μg/mL) was administered in drinking water for 12 hours after fecal collection on day 1. Fecal samples were homogenized in 1 mL of 1× tris-buffered saline (TBS) with a single 5 mm stainless steel bead using a bead beater (BioSpec Products) at 26° C. for 1 minute on the high setting, followed by vortexing at top speed for 8 minutes. Samples were then centrifuged at 500×g for 1 minute to pellet fibrous and insoluble matter. […]
# Bacterial cells (collected and stored as described above) were lysed through one round of freeze-thaw followed by nutation for 10 minutes at 26° C. […] Quantification of the enzyme reaction product, p-nitrophenol (pNP), was identical to the LC-MS analysis of aTC described above, but with reduced injection volume (5 μL) and methanol replacing acetonitrile as solvent B for the reversed phase chromatography. […] Linear fit values were normalized to amount of protein in the cellular lysates added to each reaction, which was determined by Bradford. […]
# [1] = tested on: Bt::tetR P1TDP^GH023-NanoLuc; assay: Fecal luminescence in monocolonized gnotobiotic mice; assay type: in vivo
# Procedure: Germ-free Swiss Webster mice were orally gavaged with 1×10^9 CFU of Bt::tetR P1TDP^GH023-NanoLuc and colonization was allowed to stabilize for at least 7 days prior to the start of the experiment. Fecal pellets were collected every day, and groups of mice were given aTC in the drinking water at various concentrations for 48 hours after stool collection on Day 3 and Day 17. Mice belonging to the same treatment group were co-housed for the duration of the experiment. To obtain samples for luminescence production, fecal pellets and intestinal lumen (˜100-200 mg) were homogenized in 1 mL of 1×PBS with a single 5 mm stainless steel bead using a bead beater (BioSpec Products) at 26° C. for 1 minute on the high setting, followed by vortexing at top speed for 8 minutes. Samples were centrifuged at 500×g for 1 minute to pellet fibrous and insoluble matter. The supernatant was used for CFU determination by plating dilutions on BHI-blood agar plates containing gentamicin and erythromycin, and 500 μL was used for luminescence measurements (described below).
# The 500 μL collected from the resuspended fecal supernatant was centrifuged at 21,130×g for 3 minutes to pellet bacterial cells, which were then resuspended in 50 μL 1× BugBuster (Novagen) in 1×PBS and lysed by one round of freeze-thaw and 10 minutes of nutation at 26° C. Samples were centrifuged at 21,130×g for 10 minutes at 4° C., and 10 μL of the supernatant was mixed with an equal volume of NanoLuc Reaction Buffer to induce luminescence production. Luminescence was measured after a 5 minute incubation at 26° C. on a plate reader (BioTek Synergy H1) with an integration time of 1 second at a gain setting of 100. Luminescence values were normalized to colony forming units (CFUs) determined by dilution plating of the resuspended fecal supernatant on BHI-blood agar plates containing gentamicin and erythromycin.
# [2] = in vivo; cited from earlier work
smiles,measurement,setting,value
"Cc1c2c(c(O)c3c(O)cccc13)C(=O)[C@]1(O)C(=O)C(C(N)=O)=C(O)[C@@H](N(C)C)[C@@H]1C2 [aTC, Anhydrotetracycline]",sialidase activity again undetectable after aTC removal,sialidase BT0455,4 days
same,growth of Bacteroides in aTC,Bacteroides,grow at wildtype rates
same,impact on B. thetaiotaomicron stability in the gut,[1]; CFU,do not impact B. thetaiotaomicron stability in the gut
same,aTC concentration at which detectable responses start,"[1]; drinking water, within 24 hours",0.2 to 0.5 µg/mL
same,complete repression after aTC removal,[1]; monocolonized mice,9 days
same,increase of luminescence in fecal pellets,"[1]; monocolonized mice, within 24 hours of aTC addition","~1,000 fold"
same,range of commensal gene expression modulated inside the gut by varying aTC concentrations,"[1]; mouse, in vivo",3 orders of magnitude
same,aTC concentration providing maximal gene induction in vivo,[1]; sigmoidal fit,100 µg/mL
same,concentration in drinking water that does not adversely affect mouse health,[2],100 µg/mL
